# Assay results taken from PubChem BioAssay (NCI).
#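 48-hour exposure; five concentrations; linearly interpolated endpoints. GI50 is the concentration that inhibits growth by half. At the TGI there is no net growth.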
# Experiments:
# Assay in all cases: inhibition of tumour cell growth, NCI panel, 48 h
# 786-0 renal = tested on: 786-0 renal
# A498 renal = tested on: A498 renal
# A549 NSCLC = tested on: A549 NSCLC
# ACHN renal = tested on: ACHN renal
# BT-549 breast = tested on: BT-549 breast
# CAKI-1 renal = tested on: CAKI-1 renal
# CCRF-CEM leukemia = tested on: CCRF-CEM leukemia
# COLO 205 colon = tested on: COLO 205 colon
# DU-145 prostate = tested on: DU-145 prostate
# EKVX NSCLC = tested on: EKVX NSCLC
# HCC-2998 colon = tested on: HCC-2998 colon
# HCT-116 colon = tested on: HCT-116 colon
# HCT-15 colon = tested on: HCT-15 colon
# HL-60(TB) leukemia = tested on: HL-60(TB) leukemia
# HOP-62 NSCLC = tested on: HOP-62 NSCLC
# HOP-92 NSCLC = tested on: HOP-92 NSCLC
# HS 578T breast = tested on: HS 578T breast
# HT29 colon = tested on: HT29 colon
# IGROV1 ovarian = tested on: IGROV1 ovarian
# K-562 leukemia = tested on: K-562 leukemia
# KM12 colon = tested on: KM12 colon
# LOX IMVI melanoma = tested on: LOX IMVI melanoma
# M14 melanoma = tested on: M14 melanoma
# MALME-3M melanoma = tested on: MALME-3M melanoma
# MCF7 breast = tested on: MCF7 breast
# MDA-MB-231 breast = tested on: MDA-MB-231 breast
# MDA-MB-435 = tested on: MDA-MB-435
# MDA-N = tested on: MDA-N
# MOLT-4 leukemia = tested on: MOLT-4 leukemia
# NCI-H226 lung = tested on: NCI-H226 lung
# NCI-H23 lung = tested on: NCI-H23 lung
# NCI-H460 lung = tested on: NCI-H460 lung
# NCI-H522 lung = tested on: NCI-H522 lung
# NCI/ADR-RES ovarian = tested on: NCI/ADR-RES ovarian
# OVCAR-3 ovarian = tested on: OVCAR-3 ovarian
# OVCAR-4 ovarian = tested on: OVCAR-4 ovarian
# OVCAR-5 ovarian = tested on: OVCAR-5 ovarian
# OVCAR-8 ovarian = tested on: OVCAR-8 ovarian
# PC-3 prostate = tested on: PC-3 prostate
# RPMI-8226 leukemia = tested on: RPMI-8226 leukemia
# RXF 393 renal = tested on: RXF 393 renal
# SF-268 CNS = tested on: SF-268 CNS
# SF-295 CNS = tested on: SF-295 CNS
# SF-539 CNS = tested on: SF-539 CNS
# SK-MEL-2 melanoma = tested on: SK-MEL-2 melanoma
# SK-MEL-28 melanoma = tested on: SK-MEL-28 melanoma
# SK-MEL-5 melanoma = tested on: SK-MEL-5 melanoma
# SK-OV-3 ovarian = tested on: SK-OV-3 ovarian
# SN12C renal = tested on: SN12C renal
# SNB-19 CNS = tested on: SNB-19 CNS
# SNB-75 CNS = tested on: SNB-75 CNS
# SR leukemia = tested on: SR leukemia
# SW-620 colon = tested on: SW-620 colon
# T-47D breast = tested on: T-47D breast
# TK-10 renal = tested on: TK-10 renal
# U251 CNS = tested on: U251 CNS
# UACC-257 melanoma = tested on: UACC-257 melanoma
# UACC-62 melanoma = tested on: UACC-62 melanoma
# UO-31 renal = tested on: UO-31 renal
smiles,measurement,setting,value
CN1c2ccc(O)c(O)c2-c2cc(O)cc3c2C1CCC3 (stereo not drawn),TGI,786-0 renal,35.5 µM
same,TGI,A498 renal,> 100 µM
same,TGI,A549 NSCLC,> 74.1 µM
same,TGI,ACHN renal,31.3 µM
same,TGI,BT-549 breast,39.8 µM
same,TGI,CAKI-1 renal,48.9 µM
same,TGI,CCRF-CEM leukemia,9.61 µM
same,TGI,COLO 205 colon,47.5 µM
same,TGI,DU-145 prostate,30.6 µM
same,TGI,EKVX NSCLC,46.9 µM
same,TGI,HCC-2998 colon,49.1 µM
same,TGI,HCT-116 colon,47.2 µM
same,TGI,HCT-15 colon,59.4 µM
same,TGI,HL-60(TB) leukemia,39.2 µM
same,TGI,HOP-62 NSCLC,32.6 µM
same,TGI,HOP-92 NSCLC,33.3 µM
same,TGI,HS 578T breast,> 72.9 µM
same,TGI,HT29 colon,66.2 µM
same,TGI,IGROV1 ovarian,27.9 µM
same,TGI,K-562 leukemia,40.8 µM
same,TGI,KM12 colon,> 61 µM
same,TGI,LOX IMVI melanoma,26.3 µM
same,TGI,M14 melanoma,34.8 µM
same,TGI,MALME-3M melanoma,31.3 µM
same,TGI,MCF7 breast,41.5 µM
same,TGI,MDA-MB-231 breast,> 66.1 µM
same,TGI,MDA-MB-435,31 µM
same,TGI,MDA-N,38.3 µM
same,TGI,MOLT-4 leukemia,35.6 µM
same,TGI,NCI-H226 lung,> 60.2 µM
same,TGI,NCI-H23 lung,58.3 µM
same,TGI,NCI-H460 lung,> 59.5 µM
same,TGI,NCI-H522 lung,28.4 µM
same,TGI,NCI/ADR-RES ovarian,> 64.6 µM
same,TGI,OVCAR-3 ovarian,19.5 µM
same,TGI,OVCAR-4 ovarian,28.4 µM
same,TGI,OVCAR-5 ovarian,50.7 µM
same,TGI,OVCAR-8 ovarian,65.6 µM
same,TGI,PC-3 prostate,49.2 µM
same,TGI,RPMI-8226 leukemia,25.8 µM
same,TGI,RXF 393 renal,24.3 µM
same,TGI,SF-268 CNS,33 µM
same,TGI,SF-295 CNS,> 100 µM
same,TGI,SF-539 CNS,42.2 µM
same,TGI,SK-MEL-2 melanoma,58.6 µM
same,TGI,SK-MEL-28 melanoma,48.7 µM
same,TGI,SK-MEL-5 melanoma,35.5 µM
same,TGI,SK-OV-3 ovarian,> 100 µM
same,TGI,SN12C renal,51.7 µM
same,TGI,SNB-19 CNS,> 100 µM
same,TGI,SNB-75 CNS,34.4 µM
same,TGI,SR leukemia,24.9 µM
same,TGI,SW-620 colon,63.5 µM
same,TGI,T-47D breast,42.6 µM
same,TGI,TK-10 renal,32.9 µM
same,TGI,U251 CNS,> 65 µM
same,TGI,UACC-257 melanoma,42.2 µM
same,TGI,UACC-62 melanoma,32.3 µM
same,TGI,UO-31 renal,29.6 µM
COc1ccc(-c2c(C#N)c(=O)nc(SC)n2C2OCC(OC(C)=O)C(OC(C)=O)C2OC(C)=O)cc1 (stereo not drawn),TGI,786-0 renal,> 100 µM
same,TGI,A498 renal,> 100 µM
same,TGI,A549 NSCLC,> 100 µM
same,TGI,ACHN renal,> 100 µM
same,TGI,BT-549 breast,> 100 µM
same,TGI,CAKI-1 renal,> 100 µM
same,TGI,CCRF-CEM leukemia,> 100 µM
same,TGI,COLO 205 colon,> 100 µM
same,TGI,DU-145 prostate,> 100 µM
same,TGI,EKVX NSCLC,> 100 µM
same,TGI,HCC-2998 colon,> 100 µM
same,TGI,HCT-116 colon,> 100 µM
same,TGI,HCT-15 colon,> 100 µM
same,TGI,HL-60(TB) leukemia,> 100 µM
same,TGI,HOP-62 NSCLC,> 100 µM
same,TGI,HOP-92 NSCLC,> 100 µM
same,TGI,HS 578T breast,> 100 µM
same,TGI,HT29 colon,> 100 µM
same,TGI,IGROV1 ovarian,> 100 µM
same,TGI,K-562 leukemia,> 100 µM
same,TGI,KM12 colon,> 100 µM
same,TGI,LOX IMVI melanoma,> 100 µM
same,TGI,M14 melanoma,> 100 µM
same,TGI,MALME-3M melanoma,> 100 µM
same,TGI,MCF7 breast,> 100 µM
same,TGI,MDA-MB-231 breast,> 100 µM
same,TGI,MDA-MB-435,> 100 µM
same,TGI,MDA-N,> 100 µM
same,TGI,MOLT-4 leukemia,> 100 µM
same,TGI,NCI-H226 lung,> 100 µM
same,TGI,NCI-H23 lung,> 100 µM
same,TGI,NCI-H460 lung,> 100 µM
same,TGI,NCI-H522 lung,> 100 µM
same,TGI,NCI/ADR-RES ovarian,> 100 µM
same,TGI,OVCAR-3 ovarian,> 100 µM
same,TGI,OVCAR-4 ovarian,> 100 µM
same,TGI,OVCAR-5 ovarian,> 100 µM
same,TGI,OVCAR-8 ovarian,> 100 µM
same,TGI,PC-3 prostate,> 100 µM
same,TGI,RPMI-8226 leukemia,> 100 µM
same,TGI,RXF 393 renal,> 100 µM
same,TGI,SF-268 CNS,> 100 µM
same,TGI,SF-295 CNS,> 100 µM
same,TGI,SF-539 CNS,> 100 µM
same,TGI,SK-MEL-2 melanoma,> 100 µM
same,TGI,SK-MEL-28 melanoma,> 100 µM
same,TGI,SK-MEL-5 melanoma,> 100 µM
same,TGI,SK-OV-3 ovarian,> 100 µM
same,TGI,SN12C renal,> 100 µM
same,TGI,SNB-19 CNS,> 100 µM
same,TGI,SNB-75 CNS,> 100 µM
same,TGI,SR leukemia,53.3 µM
same,TGI,SW-620 colon,> 100 µM
same,TGI,T-47D breast,> 100 µM
same,TGI,TK-10 renal,> 100 µM
same,TGI,U251 CNS,> 100 µM
same,TGI,UACC-257 melanoma,> 100 µM
same,TGI,UACC-62 melanoma,> 100 µM
same,TGI,UO-31 renal,> 100 µM
COc1ccccc1-c1cc(=O)c2c(C)ccnc2[nH]1,GI50,786-0 renal,59.9 µM
same,TGI,786-0 renal,> 100 µM
same,TGI,A498 renal,85.3 µM
same,TGI,A549 NSCLC,> 100 µM
same,TGI,ACHN renal,> 100 µM
same,TGI,BT-549 breast,44.3 µM
same,TGI,CAKI-1 renal,> 100 µM
same,TGI,CCRF-CEM leukemia,> 100 µM
same,TGI,COLO 205 colon,69.3 µM
same,TGI,DU-145 prostate,> 100 µM
same,TGI,EKVX NSCLC,> 100 µM
same,TGI,HCC-2998 colon,> 100 µM
same,GI50,HCT-116 colon,7.58 µM
same,TGI,HCT-116 colon,46.3 µM
same,TGI,HCT-15 colon,> 100 µM
same,GI50,HL-60(TB) leukemia,21 µM
same,TGI,HL-60(TB) leukemia,83.7 µM
same,TGI,HOP-62 NSCLC,> 100 µM
same,TGI,HOP-92 NSCLC,> 100 µM
same,TGI,HS 578T breast,61.4 µM
same,TGI,HT29 colon,> 100 µM
same,TGI,IGROV1 ovarian,> 100 µM
same,TGI,K-562 leukemia,> 100 µM
same,TGI,KM12 colon,> 100 µM
same,TGI,LOX IMVI melanoma,> 100 µM
same,TGI,M14 melanoma,> 100 µM
same,TGI,MALME-3M melanoma,> 100 µM
same,TGI,MCF7 breast,> 100 µM
same,TGI,MDA-MB-231 breast,> 100 µM
same,GI50,MDA-MB-435,6.52 µM
same,TGI,MDA-MB-435,30.5 µM
same,GI50,MDA-N,8.41 µM
same,TGI,MDA-N,33.1 µM
same,TGI,MOLT-4 leukemia,> 100 µM
same,TGI,NCI-H226 lung,98.9 µM
same,TGI,NCI-H23 lung,> 100 µM
same,GI50,NCI-H460 lung,23.9 µM
same,TGI,NCI-H460 lung,> 100 µM
same,TGI,NCI-H522 lung,43.7 µM
same,TGI,NCI/ADR-RES ovarian,53.2 µM
same,GI50,OVCAR-3 ovarian,12.8 µM
same,TGI,OVCAR-3 ovarian,43.1 µM
same,TGI,OVCAR-4 ovarian,> 100 µM
same,TGI,OVCAR-5 ovarian,> 100 µM
same,TGI,OVCAR-8 ovarian,> 100 µM
same,GI50,PC-3 prostate,21 µM
same,TGI,PC-3 prostate,> 100 µM
same,TGI,RPMI-8226 leukemia,> 100 µM
same,TGI,RXF 393 renal,> 100 µM
same,TGI,SF-268 CNS,> 100 µM
same,GI50,SF-295 CNS,23.7 µM
same,TGI,SF-295 CNS,80.1 µM
same,TGI,SF-539 CNS,> 100 µM
same,TGI,SK-MEL-2 melanoma,> 100 µM
same,TGI,SK-MEL-28 melanoma,> 100 µM
same,GI50,SK-MEL-5 melanoma,22.6 µM
same,TGI,SK-MEL-5 melanoma,96.6 µM
same,TGI,SK-OV-3 ovarian,> 100 µM
same,TGI,SN12C renal,> 100 µM
same,TGI,SNB-19 CNS,> 100 µM
same,TGI,SNB-75 CNS,56.8 µM
same,TGI,SR leukemia,64.2 µM
same,TGI,SW-620 colon,40.7 µM
same,TGI,T-47D breast,> 100 µM
same,TGI,TK-10 renal,> 100 µM
same,GI50,U251 CNS,35.3 µM
same,TGI,U251 CNS,> 100 µM
same,TGI,UACC-257 melanoma,> 100 µM
same,TGI,UACC-62 melanoma,> 100 µM
same,TGI,UO-31 renal,> 100 µM
